# Counter-ions that a name gives are not always drawn.
# Tests used:
# CaMK2γ = CaMK2γ (Homo sapiens, UniProt Q13555); experiment: CaMKII kinase activity, mobility shift assay (MSA); assay type: biochemical; settings: 10 μM compound; ATP 25, GS peptide 1 uM; read-out: CaMK2γ inh. @ 10 μM (%)
# Method: (§1) CAMKII and CDK7 activity was assayed using a mobility shift assay (MSA). Test inhibitors and controls (staurosporine) were prepared at 4× the desired final concentration. Test compound (5.0 μL), 4× substrate/ATP/metal solution (5.0 μL), and 2× kinase (10 μL) were added to each well of a reaction plate and incubated for 1 hr at room temperature. The assay components were diluted in assay buffer (20 mM HEPES pH 7.5, 0.01% Triton X-100, 2 mM DTT). To terminate the reaction, 60 μL of termination buffer (QuickScout Screening Assist MSA, Carna Biosciences) was added to each well. The reaction mixture was applied to the LabChip3000 system (Caliper Life Sciences) and the product and substrate peptide peaks were separated and quantified.
# CaMK2β = CaMK2β (Homo sapiens, UniProt Q13554); experiment: CaMKII kinase activity, mobility shift assay (MSA); assay type: biochemical; settings: 10 μM compound; ATP 25, GS peptide 1 uM; read-out: CaMK2β inh. @ 10 μM (%)
# Method: as §1
# CaMK2α = CaMK2α (Homo sapiens, UniProt Q9UQM7); experiment: CaMKII kinase activity, mobility shift assay (MSA); assay type: biochemical; settings: 10 μM compound; ATP 50, GS peptide 1 uM; read-out: CaMK2α inh. @ 10 μM (%)
# Method: as §1
# CaMK2δ = CaMK2δ (Homo sapiens, UniProt Q13557); experiment: CaMKII kinase activity, mobility shift assay (MSA); assay type: biochemical; settings: 10 μM compound; ATP 5, GS peptide 1 uM; read-out: CaMK2δ inh. @ 10 μM (%)
# Method: as §1
# MDA-MB-231 cancer cells = experiment: MTS assay, cell growth inhibition; assay type: cell-based; settings: MDA-MB-231 cells, 72 h incubation; test concentration not given
# Method: (§2) Cells were maintained at 37° C., 5% CO2 in DMEM media supplemented with 1% fetal bovine serum, penicillin/streptomycin and fungizone (Invitrogen). Cells were seeded into 96-well tissue culture plates at 3000 per well and cultured at 37° C. for 18 hours. Test compounds were dissolved and diluted to 300× in DMSO then diluted 1:40 in DMEM. Cells were incubated with test compounds for 72 hours followed by incubation with tetrazolium compound (3-(4,5-dimethylthiazol-2-yl)-5-(3-carboxymethoxyphenyl)-2-(4-sulfophenyl)-2H-tetrazolium, inner salt; MTS) and the electron coupling reagent, phenazine methosulfate (PMS) for 4 hours. […] The ability of compounds to inhibit cell growth in this assay is correlated with the reduction of dehydrogenase enzyme activity found in metabolically active cells. The measurement of the absorbance of the formazan was assessed using a Victor (Perkin Elmer) microplate reader at 492 nm. The calculated IC50 value is the concentration of the test compound that causes a 50% decrease in the absorbance. Selected compounds have been tested in DLD-1 and MDA-MB-231 cancer cells.
# DLD-1 cancer cells = experiment: MTS assay, cell growth inhibition; assay type: cell-based; settings: DLD-1 cells, 72 h incubation; test concentration not given
# Method: as §2
# CDK7 = CDK7 (Homo sapiens, UniProt P50613); experiment: CDK7 kinase activity, mobility shift assay (MSA); assay type: biochemical; settings: 10 μM compound; ATP 50, CTD3 peptide 1 uM; read-out: CDK7 inh. @ 10 μM (%)
# Sequence of CDK7 (P50613 whole entry, species assumed): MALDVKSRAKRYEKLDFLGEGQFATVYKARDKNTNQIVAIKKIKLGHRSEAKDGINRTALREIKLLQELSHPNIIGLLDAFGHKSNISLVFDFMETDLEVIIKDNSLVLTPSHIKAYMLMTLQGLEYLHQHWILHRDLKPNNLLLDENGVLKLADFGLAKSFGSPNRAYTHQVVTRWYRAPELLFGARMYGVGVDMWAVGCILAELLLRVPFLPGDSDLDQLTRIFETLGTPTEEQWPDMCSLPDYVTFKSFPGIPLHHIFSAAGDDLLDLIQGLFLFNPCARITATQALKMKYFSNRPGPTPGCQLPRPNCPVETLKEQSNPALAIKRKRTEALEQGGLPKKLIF
# Sequence of CDK7 (P51946 whole entry partner, species assumed): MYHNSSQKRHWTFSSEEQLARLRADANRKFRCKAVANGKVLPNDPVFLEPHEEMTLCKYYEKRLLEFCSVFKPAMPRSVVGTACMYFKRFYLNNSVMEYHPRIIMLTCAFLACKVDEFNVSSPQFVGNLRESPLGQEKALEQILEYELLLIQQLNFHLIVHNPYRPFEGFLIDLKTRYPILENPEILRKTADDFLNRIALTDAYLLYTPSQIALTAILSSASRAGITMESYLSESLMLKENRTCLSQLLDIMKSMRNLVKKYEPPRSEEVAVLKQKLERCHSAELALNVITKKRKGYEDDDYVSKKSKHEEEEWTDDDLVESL
# Sequence of CDK7 (P51948 whole entry partner, species assumed): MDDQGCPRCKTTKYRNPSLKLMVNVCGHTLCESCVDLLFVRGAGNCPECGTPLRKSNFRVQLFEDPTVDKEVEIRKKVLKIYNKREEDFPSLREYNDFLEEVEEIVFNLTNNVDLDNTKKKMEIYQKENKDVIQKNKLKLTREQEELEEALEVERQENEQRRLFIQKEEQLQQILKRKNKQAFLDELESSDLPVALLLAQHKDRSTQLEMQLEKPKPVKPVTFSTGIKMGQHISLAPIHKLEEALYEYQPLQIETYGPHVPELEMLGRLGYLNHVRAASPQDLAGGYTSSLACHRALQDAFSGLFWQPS
# Method: as §1
Structure (SMILES),"MDA-MB-231, MTS, 72 h (% Inhibition) (MDA-MB-231 cancer cells)","DLD-1, MTS, 72 h (% Inhibition) (DLD-1 cancer cells)",other results
"Fc1ccc(CN2c3ccccc3-n3nnnc3-c3cnc(NCc4cccnc4)nc32)cc1F [Compound 16, 9-(3,4-difluorobenzyl)-N-(pyridin-3-ylmethyl)-9H-pyrimido[5,4-c]tetrazolo[1,5-a][1,5]benzodiazepin-11-amine]",30%,38%,inhibition at 10 µM (CaMK2γ): 11%; inhibition at 10 µM (CaMK2β): 41%; inhibition at 10 µM (CaMK2α): 67%; inhibition at 10 µM (CaMK2δ): 65%
"Fc1ccc(CN2c3ccccc3-n3nnnc3-c3cnc(NCCN4CCOCC4)nc32)cc1F [Compound 18, 9-(3,4-difluorobenzyl)-N-(2-morpholin-4-ylethyl)-9H-pyrimido[5,4-c]tetrazolo[1,5-a][1,5]benzodiazepin-11-amine]",–,–,inhibition at 10 µM (CDK7): 84%; inhibition at 10 µM (CaMK2γ): 12%; inhibition at 10 µM (CaMK2β): 23%; inhibition at 10 µM (CaMK2α): 42%; inhibition at 10 µM (CaMK2δ): 32%
"CN1CCN(c2ncc3c(n2)N(Cc2ccc(F)c(F)c2)c2ccccc2-n2nnnc2-3)CC1 (as salt: HCl) [Compound 14, 9-(3,4-difluorobenzyl)-11-(4-methylpiperazin-1-yl)-9H-pyrimido[5,4-c]tetrazolo[1,5-a][1,5]benzodiazepine]",–,–,melting point: 180 to 191 °C
"CN1CCN(c2ncc3c(n2)N(Cc2ccc(F)c(F)c2)c2ccccc2-n2nnnc2-3)CC1 [Compound 14, 9-(3,4-difluorobenzyl)-11-(4-methylpiperazin-1-yl)-9H-pyrimido[5,4-c]tetrazolo[1,5-a][1,5]benzodiazepine]",58%,49%,inhibition at 10 µM (CaMK2γ): 80%; inhibition at 10 µM (CaMK2β): 88%; inhibition at 10 µM (CaMK2α): 96%; inhibition at 10 µM (CaMK2δ): 96%
"c1ccc(CCNc2ncc3c(n2)Nc2ccccc2-n2nnnc2-3)nc1 [Compound 98, N-(2-pyridin-2-ylethyl)-9H-pyrimido[5,4-c]tetrazolo[1,5-a][1,5]benzodiazepin-11-amine]",41%,76%,–
"c1ccc2c(c1)Nc1nc(NCCc3ccncc3)ncc1-c1nnnn1-2 [Compound 40, N-(2-pyridin-4-ylethyl)-9H-pyrimido[5,4-c]tetrazolo[1,5-a][1,5]benzodiazepin-11-amine]",65%,98%,–
"c1ccc2c(c1)Nc1nc(NC3CCCC3)ncc1-c1nnnn1-2 [Compound 45, N-cyclopentyl-9H-pyrimido[5,4-c]tetrazolo[1,5-a][1,5]benzodiazepin-11-amine]",76%,95%,–
"CC(C)CC(C)Nc1ncc2c(n1)Nc1ccccc1-n1nnnc1-2 (stereo not shown) [Compound 63, N-(1,3-dimethylbutyl)-9H-pyrimido[5,4-c]tetrazolo[1,5-a][1,5]benzodiazepin-11-amine]",32%,90%,–
"CCCN(C)c1ncc2c(n1)Nc1ccccc1-n1nnnc1-2 [Compound 104, N-methyl-N-propyl-9H-pyrimido[5,4-c]tetrazolo[1,5-a][1,5]benzodiazepin-11-amine]",99%,97%,–
"c1ccc2c(c1)CCCC2Nc1ncc2c(n1)Nc1ccccc1-n1nnnc1-2 (stereo not shown) [Compound 77, N-(1,2,3,4-tetrahydronaphthalen-1-yl)-9H-pyrimido[5,4-c]tetrazolo[1,5-a][1,5]benzodiazepin-11-amine]",86%,97%,–
"CC(Nc1ncc2c(n1)Nc1ccccc1-n1nnnc1-2)c1ccccc1 (stereo not shown) [Compound 51, N-(1-phenylethyl)-9H-pyrimido[5,4-c]tetrazolo[1,5-a][1,5]benzodiazepin-11-amine]",98%,96%,–
"Fc1ccc(CN2c3ccccc3-n3nnnc3-c3cnc(N4CCOCC4)nc32)cc1F [Compound 13, 9-(3,4-difluorobenzyl)-11-morpholin-4-yl-9H-pyrimido[5,4-c]tetrazolo[1,5-a][1,5]benzodiazepine]",98%,97%,–
"Fc1ccccc1CNc1ncc2c(n1)Nc1ccccc1-n1nnnc1-2 [Compound 88, N-(2-fluorobenzyl)-9H-pyrimido[5,4-c]tetrazolo[1,5-a][1,5]benzodiazepin-11-amine]",41%,96%,–
"c1ccc(CNc2ncc3c(n2)Nc2ccccc2-n2nnnc2-3)nc1 [Compound 25, N-(pyridin-2-ylmethyl)-9H-pyrimido[5,4-c]tetrazolo[1,5-a][1,5]benzodiazepin-11-amine]",79%,97%,–
"COc1cc(CNc2ncc3c(n2)Nc2ccccc2-n2nnnc2-3)cc(OC)c1 [Compound 24, N-(3,5-dimethoxybenzyl)-9H-pyrimido[5,4-c]tetrazolo[1,5-a][1,5]benzodiazepin-11-amine]",33%,95%,–
